Measured values from PubChem BioAssay AID1919002 (Molecular Pharmacology Branch, DTP, NCI, 2023).
Values joined by “and” are separate entries in the source; they are usually repeats but may differ in a detail not shown here. Identical values can stand only once.

Test system: 743489-274-T-PDC complex spheroid growth
Assay: Anticancer human tumor 743489-274-T-PDC patient-derived renal cell carcinoma cell line growth inhibition [AhR]
Details: for viability, T/C: stronger effect = lower value
Procedure, shortened: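 Complex tumor spheroids co-cultured with HUVEC and human MSC stroma; AhR antagonists tested in combination with standard-of-care and investigational agents. Top concentration at or near clinical Cmax (else 10 microM), half-log dilutions; growth expressed as percent test/control.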

[1] = curve of first compound, second compound 0.1 µM
[2] = curve of first compound, second compound 0.316 µM
[3] = curve of first compound, second compound 1 µM
[4] = curve of first compound, second compound 3.16 µM
[5] = curve of first compound, second compound 10 µM
[6] = second compound 0.1 µM, first compound 0.0316 µM
[7] = second compound 0.1 µM, first compound 0.1 µM
[8] = second compound 0.316 µM, first compound 0.0316 µM
[9] = second compound 0.316 µM, first compound 0.1 µM
[10] = second compound 1 µM, first compound 0.0316 µM
[11] = second compound 1 µM, first compound 0.1 µM
[12] = second compound 3.16 µM, first compound 0.0316 µM
[13] = second compound 3.16 µM, first compound 0.1 µM
[14] = second compound 10 µM, first compound 0.0316 µM
[15] = second compound 10 µM, first compound 0.1 µM
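Also: spheroids exposed to agents for 7 days before readout.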
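For viability, T/C in this document: 100% = DMSO vehicle control wells.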

SMILES: Cn1ncnc1C1c2n[nH]c(=O)c3cc(F)cc(c23)NC1c1ccc(F)cc1 (stereo not given) + Cc1cncc(-c2nc(NCCc3c[nH]c4ccccc34)c3ncn(C(C)C)c3n2)c1
- IC50 [1]: > 0.1 µM
- IC50 [2]: > 0.1 µM
- IC50 [3]: > 0.1 µM
- IC50 [4]: > 0.1 µM
- IC50 [5]: > 0.1 µM
- viability, T/C (second compound 0.1 µM, first compound 0.000316 µM): 95.5%
- viability, T/C (second compound 0.1 µM, first compound 0.001 µM): 104%
- viability, T/C (second compound 0.1 µM, first compound 0.00316 µM): 90.8%
- viability, T/C (second compound 0.1 µM, first compound 0.01 µM): 87.9%
- viability, T/C [6]: 89.6%
- viability, T/C [7]: 98.8%
- viability, T/C (second compound 0.316 µM, first compound 0.000316 µM): 88.8%
- viability, T/C (second compound 0.316 µM, first compound 0.001 µM): 91.8%
- viability, T/C (second compound 0.316 µM, first compound 0.00316 µM): 96.1%
- viability, T/C (second compound 0.316 µM, first compound 0.01 µM): 96.2%
- viability, T/C [8]: 93.3%
- viability, T/C [9]: 95.7%
- viability, T/C (second compound 1 µM, first compound 0.000316 µM): 103%
- viability, T/C (second compound 1 µM, first compound 0.001 µM): 96%
- viability, T/C (second compound 1 µM, first compound 0.00316 µM): 97%
- viability, T/C (second compound 1 µM, first compound 0.01 µM): 101%
- viability, T/C [10]: 96.7%
- viability, T/C [11]: 88.2%
- viability, T/C (second compound 3.16 µM, first compound 0.000316 µM): 121%
- viability, T/C (second compound 3.16 µM, first compound 0.001 µM): 102%
- viability, T/C (second compound 3.16 µM, first compound 0.00316 µM): 99.2%
- viability, T/C (second compound 3.16 µM, first compound 0.01 µM): 114%
- viability, T/C [12]: 99.3%
- viability, T/C [13]: 94.5%
- viability, T/C (second compound 10 µM, first compound 0.000316 µM): 128%
- viability, T/C (second compound 10 µM, first compound 0.001 µM): 117%
- viability, T/C (second compound 10 µM, first compound 0.00316 µM): 139%
- viability, T/C (second compound 10 µM, first compound 0.01 µM): 121%
- viability, T/C [14]: 111%
- viability, T/C [15]: 131%

SMILES: Cc1cncc(-c2nc(NCCc3c[nH]c4ccccc34)c3ncn(C(C)C)c3n2)c1
- viability, T/C (compound 0.1 µM): 95.2% [middle of 20 runs]
- viability, T/C (compound 0.316 µM): 94.5% [middle of 20 runs]
- IC50 (compound alone, run of 08/16/2022): > 10 µM

SMILES: Nc1ccn(C2OC(CO)C(O)C2(F)F)c(=O)n1 (stereo not given) + Cc1cncc(-c2nc(NCCc3c[nH]c4ccccc34)c3ncn(C(C)C)c3n2)c1
- IC50 [1]: > 10 µM
- IC50 [2]: > 10 µM
- IC50 [3]: > 10 µM
- IC50 [4]: > 10 µM
- IC50 [5]: > 10 µM
- viability, T/C [6]: 83.1%
- viability, T/C [7]: 76.7%
- viability, T/C (second compound 0.1 µM, first compound 0.316 µM): 72.1%
- viability, T/C (second compound 0.1 µM, first compound 1 µM): 65.2%
- viability, T/C (second compound 0.1 µM, first compound 3.16 µM): 65.7%
- viability, T/C (second compound 0.1 µM, first compound 10 µM): 67.9%
- viability, T/C [8]: 87.1%
- viability, T/C [9]: 73.2%
- viability, T/C (second compound 0.316 µM, first compound 0.316 µM): 71.9%
- viability, T/C (second compound 0.316 µM, first compound 1 µM): 62.3%
- viability, T/C (second compound 0.316 µM, first compound 3.16 µM): 72.3%
- viability, T/C (second compound 0.316 µM, first compound 10 µM): 63.4%
- viability, T/C [10]: 85.6%
- viability, T/C [11]: 90.8%
- viability, T/C (second compound 1 µM, first compound 0.316 µM): 74.7%
- viability, T/C (second compound 1 µM, first compound 1 µM): 64.8%
- viability, T/C (second compound 1 µM, first compound 3.16 µM): 79.2%
- viability, T/C (second compound 1 µM, first compound 10 µM): 68.9%
- viability, T/C [12]: 104%
- viability, T/C [13]: 93.8%
- viability, T/C (second compound 3.16 µM, first compound 0.316 µM): 77.3%
- viability, T/C (second compound 3.16 µM, first compound 1 µM): 62.3%
- viability, T/C (second compound 3.16 µM, first compound 3.16 µM): 74.3%
- viability, T/C (second compound 3.16 µM, first compound 10 µM): 67.1%
- viability, T/C [14]: 138%
- viability, T/C [15]: 100%
- viability, T/C (second compound 10 µM, first compound 0.316 µM): 74.2%
- viability, T/C (second compound 10 µM, first compound 1 µM): 84.2%
- viability, T/C (second compound 10 µM, first compound 3.16 µM): 78.5%
- viability, T/C (second compound 10 µM, first compound 10 µM): 96.8%

SMILES: CCN(c1cc(-c2ccc(CN3CCOCC3)cc2)cc(C(=O)NCc2c(C)cc(C)[nH]c2=O)c1C)C1CCOCC1
- viability, T/C (compound 0.00949 µM): 107% and 101% and 108%
- viability, T/C (compound 0.03 µM): 102% and 103% and 122%
- viability, T/C (compound 0.0949 µM): 102% and 86.6% and 107%
- viability, T/C (compound 0.3 µM): 102% and 99.9% and 101%
- viability, T/C (compound 0.949 µM): 94.9% and 104% and 108%
- viability, T/C (compound 3 µM): 102% and 91% and 101%
- IC50 (curve of compound): > 3 µM
